From EPA's ToxRefDB 2

Experiments:
[1] = system: dog; conditions: Chronic toxicity, beagle, Oral, Feed, dose end: 394 day, group: systemic
[2] = system: dog; conditions: Subchronic oral toxicity in nonrodent, beagle, Feed, dose end: 98 day, group: systemic
[3] = system: rat; conditions: Subchronic oral toxicity in rodents, wistar, Feed, dose end: 90 day, group: systemic
[4] = system: rat; conditions: Multigenerational reproductive toxicity study, wistar, Oral, Feed, dose end: 2 generation
[5] = system: rat; conditions: Prenatal developmental toxicity study, wistar, Oral, Gavage/Intubation, dose end: 20 GD
[6] = system: mouse; conditions: Carcinogenicity, cd1, Oral, Feed, dose end: 78 week, group: systemic
[7] = system: mouse; conditions: Subchronic oral toxicity in rodents, cd1, Feed, dose end: 90 day, group: systemic, systemic / organ weight / liver / relative to body weight + systemic / organ weight / liver / absolute + systemic / clinical chemistry / …
[8] = system: rat; conditions: Subchronic oral toxicity in rodents, sprague dawley, Feed, dose end: 90 day, group: systemic
[9] = system: dog; conditions: Subchronic oral toxicity in nonrodent, beagle, Feed, dose end: 13 week, group: systemic, systemic / clinical chemistry / alanine aminotransferase (alt/sgpt) / alanine aminotransferase (alt/sgpt) + systemic / clinical chemistry / …
[10] = system: rat; conditions: Subchronic oral toxicity in rodents, sprague dawley, Feed, dose end: 90 day, group: systemic, systemic / hematology / erythrocyte (rbc) count differential / erythrocyte (rbc) + systemic / hematology / hematocrit (hct) / hematocrit (…
[11] = system: rat; conditions: Combined chronic toxicity/carcinogenicity; other; Oral; Feed; dose end: 22 month; group: systemic; systemic / hematology / erythrocyte (rbc) count differential / erythrocyte (rbc) + systemic / hematology / hematocrit (hct) / hematocrit (…
[12] = system: mouse; conditions: Carcinogenicity; cd1; Oral; Feed; dose end: 18 month; group: systemic; systemic / organ weight / liver / absolute + systemic / organ weight / liver / relative to body weight + systemic / pathology microscopic / …
[13] = system: dog; conditions: Chronic toxicity, beagle, Oral, Feed, dose end: 52 week, group: systemic
[14] = system: rabbit; conditions: Prenatal developmental toxicity study, new zealand white, Oral, Gavage/Intubation, dose end: 19 GD
[15] = systemic / clinical chemistry / alkaline phosphatase (alp/alk) / alkaline phosphatase (alp/alk) + systemic / clinical chemistry / gamma …
[16] = systemic / pathology microscopic / kidney / pigmentation
[17] = systemic / in life observation / body weight / body weight gain + systemic / in life observation / food consumption / food efficiency
[18] = systemic / in life observation / body weight / body weight gain + systemic / in life observation / food consumption / food efficiency + …
[19] = systemic / hematology / hemoglobin (hgb) / hemoglobin (hgb)
[20] = systemic / in life observation / body weight / body weight + systemic / in life observation / body weight / body weight gain + systemic / in…
[21] = group: offspring, developmental / developmental malformation / bone / incomplete ossification + developmental / developmental landmark / preputial separation…
[22] = group: parental, systemic / in life observation / body weight / body weight gain
[23] = group: developmental, developmental / developmental malformation / bone / incomplete ossification
[24] = group: maternal, systemic / organ weight / liver / absolute + systemic / organ weight / liver / relative to body weight
[25] = systemic / clinical chemistry / alanine aminotransferase (alt/sgpt) / alanine aminotransferase (alt/sgpt) + systemic / clinical chemistry / …
[26] = systemic / clinical chemistry / aspartate aminotransferase (ast/sgot) / aspartate aminotransferase (ast/sgot)
[27] = systemic / in life observation / body weight / body weight + systemic / in life observation / body weight / body weight gain + systemic / …
[28] = group: developmental, systemic / in life observation / body weight / fetal weight
[29] = group: maternal, reproductive / reproductive performance / aborted / aborted + systemic / in life observation / clinical signs / body surface staining + …

CO/N=C(/C1=NOCCO1)c1ccccc1Oc1ncnc(Oc2ccccc2Cl)c1F [Fluoxastrobin]
LOAEL [1, 15]: 7.7 mg/kg/day | NOAEL [1, 15]: 1.5 mg/kg/day | LEL [1, 16]: 0.7 mg/kg/day | NEL [1, 16]: < 0.7 mg/kg/day | LEL [2, 17]: 3 mg/kg/day | LOAEL [2, 18]: 24.2 mg/kg/day | NEL [2, 18]: 1.4 mg/kg/day | NOAEL [2, 18]: 3 mg/kg/day | LEL [3, 19]: 21.5 mg/kg/day | NEL [3, 19]: < 21.5 mg/kg/day | LOAEL [3, 20]: 580 mg/kg/day | NOAEL [3, 20]: 70.4 mg/kg/day | LEL [4, 21]: 862 mg/kg/day | LOAEL [4, 21]: 862 mg/kg/day | NEL [4, 21]: 77.4 mg/kg/day | NOAEL [4, 21]: 77.4 mg/kg/day | LEL [4, 22]: 665 mg/kg/day | LOAEL [4, 22]: 665 mg/kg/day | NEL [4, 22]: 70 mg/kg/day | NOAEL [4, 22]: 70 mg/kg/day | LEL [5, 23]: 300 mg/kg/day | LOAEL [5, 23]: > 1000 mg/kg/day | NEL [5, 23]: 100 mg/kg/day | NOAEL [5, 23]: ≥ 1000 mg/kg/day | LEL [5, 24]: 1000 mg/kg/day | LOAEL [5, 24]: > 1000 mg/kg/day | NEL [5, 24]: 300 mg/kg/day | NOAEL [5, 24]: ≥ 1000 mg/kg/day | LOAEL [6, 25]: > 776 mg/kg/day | NEL [6, 25]: 19 mg/kg/day | NOAEL [6, 25]: ≥ 776 mg/kg/day | LEL ([6]; systemic / in life observation / body weight / body weight + systemic / organ weight / liver / relative to body weight): 135 mg/kg/day | LEL [7]: 81.1 mg/kg/day | LOAEL [7]: > 1300 mg/kg/day | NEL [7]: < 81.1 mg/kg/day | NOAEL [7]: ≥ 1300 mg/kg/day

COC(=O)c1cccc(C)c1S(=O)(=O)NC(=O)Nc1nc(OCC(F)(F)F)nc(N(C)C)n1 [Triflusulfuron-methyl]
LEL [8, 26]: 7.71 mg/kg/day | NEL [8, 26]: < 7.71 mg/kg/day | LOAEL [8, 17]: 133 mg/kg/day | NOAEL [8, 18]: 6.56 mg/kg/day | LEL [9]: 147 mg/kg/day | LOAEL [9]: 147 mg/kg/day | NEL [9]: 3.9 mg/kg/day | NOAEL [9]: 3.9 mg/kg/day | LEL [10]: 127 mg/kg/day | LOAEL [10]: 127 mg/kg/day | NEL [10]: 6.2 mg/kg/day | NOAEL [10]: 6.2 mg/kg/day | LEL [11]: 30.6 mg/kg/day | LOAEL [11]: 30.6 mg/kg/day | NEL [11]: 4.06 mg/kg/day | NOAEL [11]: 4.06 mg/kg/day | LEL [12]: 349 mg/kg/day | LOAEL [12]: 349 mg/kg/day | NEL [12]: 20.9 mg/kg/day | NOAEL [12]: 20.9 mg/kg/day | LEL [13, 27]: 26.9 mg/kg/day | NEL [13, 27]: 1 mg/kg/day | LOAEL ([13]; systemic / organ weight / liver / relative to body weight + systemic / pathology microscopic / liver / hypertrophy): 95.5 mg/kg/day | NOAEL ([13]; systemic / organ weight / liver / relative to body weight + systemic / pathology microscopic / liver / hypertrophy + systemic / clinical …): 27.7 mg/kg/day | LEL [14, 28]: 270 mg/kg/day | LOAEL [14, 28]: 270 mg/kg/day | NEL [14, 28]: 90 mg/kg/day | NOAEL [14, 28]: 90 mg/kg/day | LEL [14, 29]: 270 mg/kg/day | LOAEL [14, 29]: 270 mg/kg/day | NEL [14, 29]: 90 mg/kg/day | NOAEL [14, 29]: 90 mg/kg/day
